Assay results reported in patent US20080293758A1, “Combination of a Steroid Sulfatase Inhibitor and an Ascomycin” (Novartis AG, priority 2005, published 2008).
Where “and” joins values, the source holds several entries; their conditions need not be identical. Equal values may be shown once.

Columns and labels:
[1] = target: T1, steroid sulfatase in human cadaver skin homogenate (Homo sapiens, UniProt P08842); assay: Assay Using Human Skin Homogenate (DHEAS cleavage); assay type: biochemical; details: 18 hrs at 37° C.
T1 construct: Frozen specimens of human cadaver skin (about 100 mg per sample) are minced into small pieces; from tissue; host or cells: human cadaver skin, minced and suspended in Tris buffer with 0.1% Triton X-100
T1 sequence (P08842 22-583): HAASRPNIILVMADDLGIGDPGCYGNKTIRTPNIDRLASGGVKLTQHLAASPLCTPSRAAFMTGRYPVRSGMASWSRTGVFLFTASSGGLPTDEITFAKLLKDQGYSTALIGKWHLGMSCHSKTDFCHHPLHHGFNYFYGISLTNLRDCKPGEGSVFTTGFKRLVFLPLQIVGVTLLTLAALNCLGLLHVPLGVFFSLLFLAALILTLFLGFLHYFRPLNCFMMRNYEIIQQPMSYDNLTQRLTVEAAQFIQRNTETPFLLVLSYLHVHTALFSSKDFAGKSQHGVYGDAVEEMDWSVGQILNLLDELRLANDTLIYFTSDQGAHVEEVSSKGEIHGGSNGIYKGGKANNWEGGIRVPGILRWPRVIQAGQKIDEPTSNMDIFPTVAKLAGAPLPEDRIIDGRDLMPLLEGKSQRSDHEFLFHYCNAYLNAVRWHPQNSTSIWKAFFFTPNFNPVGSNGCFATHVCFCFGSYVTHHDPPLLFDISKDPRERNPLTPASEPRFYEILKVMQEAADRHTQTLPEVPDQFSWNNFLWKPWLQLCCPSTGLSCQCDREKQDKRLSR
Description: Frozen specimens of human cadaver skin (about 100 mg per sample) are minced into small pieces (about 1×1 mm) using sharp scissors. The pieces obtained are suspended in ten volumes (w/w) of buffer (20 mM Tris-HCl, pH 7.5), containing 0.1% Triton X-100. Test compounds (e.g. compounds of the present invention) are added at graded concentrations from stock solutions in ethanol or DMSO. Second, DHEAS as the substrate is added ([…] [^3H]DHEAS, specific activity: about 60 Ci/mmol, and 20 μM unlabeled DHEAS). Samples are incubated for 18 hrs at 37° C. At the end of the incubation period, 50 μl of 1 M Tris, pH 10.4 and 3 ml of toluene are added. A 1-ml aliquot of the organic phase is removed and subjected to liquid scintillation counting. The determined dpm-values in the aliquots are converted to nmol of DHEA cleaved per g of skin per hour.

[2] = target: T2, purified human steroid sulfatase (Homo sapiens, UniProt P08842); assay: Assay of Human Steroid Sulfatase (4-methylumbelliferyl sulfate cleavage); assay type: biochemical; details: reference compound, determined in parallel
T2 construct: Human placenta is obtained freshly after delivery and stripped of membranes and connective tissues; from tissue; host or cells: human placenta (microsomes, Triton X-100 extract, hydroxy apatite / concanavalin A sepharose / blue sepharose chromatography)
T2 sequence (P08842 22-583): T1 sequence (P08842 22-583)
Description: For storage, the material is frozen at −70° C.
The activity is recovered in the flow-through.
Plates are incubated at 37° C. for 1 hour.
Relative IC50 values are defined as follows: […]

[3] = tested on: irritant contact dermatitis elicited with tetradecanoylphorbol-13-acetate (TPA) on mouse ears; assay: Anti-Inflammatory Test System (TPA-elicited irritant contact dermatitis, auricular weights); assay type: in vivo, mice, strain NMRI; details: topical 10 μl, 6 hours after TPA
Description: The test sites on the inner surface of the right external ears of mice, e.g. strain NMRI, (8 per group) are treated with 10 μl of the dissolved test compound or with the vehicle (a 4:4:2 mixture of ethanol/acetone/dimethylacetamide) alone. The test compounds are applied alone or in combination at concentrations shown in the TEST RESULT TABLE. Thirty minutes after the treatment irritant contact dermatitis is elicitated at the treated auricular sites with 10 μl 0.005% tetradecanoylphorbol-13-acetate (TPA).
Skin inflammation is assessed 6 hours after the elicitation by determination of the auricular weights, as a measure of inflammatory swelling. The animals are killed and both ears are cut off and weighed. Inhibitory activity of test compounds is calculated from differences in right and left ears (internal controls) in mice treated with the test compounds compared with animals treated with the vehicle only. Results obtained are as set out in TEST RESULT TABLE below:
In the TEST RESULT TABLE the concentrations of the compounds (in bold) used are indicated in micromol/litre. The values given in the TEST RESULT TABLE (in regular letters) are the inhibition in % determined according to the ANTI-INFLAMMATORY TEST SYSTEM used.

| SMILES | IC50 [1] | also measured |
| --- | --- | --- |
| CC(C)(C)OC(=O)N1CC2CCCCC(C1)C2C(=O)NS(=O)(=O)c1cc(C(F)(F)F)cc(C(F)(F)F)c1 (single isomer, unassigned) [Example 217, 10-(3,5-bis-trifluoromethyl-benzenesulfonylaminocarbonyl)-8-aza-bicyclo[4.3.1]decane-8-carboxylic acid tert-butyl ester] | 30 to 270 nM and 270 nM |  |
| O=C(NS(=O)(=O)c1cc(C(F)(F)F)cc(C(F)(F)F)c1)C1C2CCCCC1CN(C(=O)CC1CCCC1)C2 (centres unmarked) [Example 208] | 30 to 270 nM |  |
| CC(C)(C)OC(=O)N1CC2CCCCC(C1)C2C(=O)NS(=O)(=O)c1cc(C(F)(F)F)cc(C(F)(F)F)c1 (centres unmarked) [Example 218] | 30 to 270 nM and 270 nM |  |
| C[C@]12CC[C@@H]3c4ccc(OS(N)(=O)=O)cc4CC[C@H]3[C@@H]1CCC2=O [estrone sulfamate, estrone 3-O-sulfamate] |  | IC50 [2]: ~60 nM |
| CC[C@@H]1/C=C(\C)C[C@H](C)C[C@H](OC)[C@H]2O[C@@](O)(C(=O)C(=O)N3CCCC[C@H]3C(=O)O[C@H](/C(C)=C/[C@@H]3CC[C@H](Cl)[C@H](OC)C3)[C@H](C)[C@@H](O)CC1=O)[C@H](C)C[C@@H]2OC [pimecrolimus, {[1E-(1R,3R,4S)]1R,9S,12S,13R,14S,17R,18E,21S,23S,24R,25S,27R}-12-[2-(4-chloro-3-methoxycyclohexyl)-1-methylvinyl]-17-ethyl-1,14-dihydroxy-23,25-dimethoxy-13,19,21,27-tetramethyl-11,28,dioxa-4-azatricyclo[22.3.1.0(4,9)]octacos-18-ene-2,3,10,16-tetraone] |  | inhibition in % ([3]; pimecrolimus 0.1, example 217 or 218 0 micromol/litre): 15%; inhibition in % ([3]; pimecrolimus 0.3, example 217 or 218 0 micromol/litre): 29%; inhibition in % ([3]; pimecrolimus 1.0, example 217 or 218 0 micromol/litre): 30%; inhibition in % ([3]; pimecrolimus 3.0, example 217 or 218 0 micromol/litre): 31%; inhibition in % ([3]; pimecrolimus 10, example 217 or 218 0 micromol/litre): 42% |

More lines, main results first:

| IC50 [1] | SMILES | also measured |
| --- | --- | --- |
| 30 to 270 nM | NC(=O)c1ccc(C(F)(F)F)cc1N1CCC(CC(=O)NS(=O)(=O)c2cccc(Cl)c2Cl)CC1 [Example 248] |  |
| 30 to 270 nM | NC(=O)c1ccc(C(F)(F)F)cc1N1CCC(CC(=O)NS(=O)(=O)c2cc(Cl)cc(Cl)c2)CC1 [Example 249] |  |
| 30 to 270 nM | Cc1c(Cl)cccc1S(=O)(=O)NC(=O)CC1CCN(c2cc(C(F)(F)F)ccc2C(N)=O)CC1 [Example 251] |  |
| 30 to 270 nM | NC(=O)c1ccc(C(F)(F)F)cc1N1CCC(CS(=O)(=O)NC(=O)c2cc(C(F)(F)F)cc(C(F)(F)F)c2)CC1 [Example 379] | melting point: 268 to 273 °C |
